Experimental data from patent US7517889B2, “2,6-substituted-4-monosubstitutedamino-pyrimidine as prostaglandin D2 receptor antagonists” (Aventis Pharmaceuticals, Inc., priority 2004, dated 2009).
Counter-ions that a name gives are not always drawn.

target: T1, DP receptor (Homo sapiens, UniProt Q13258); experiment: SPA cAMP assay in human LS174 T cells (human DP functional assay); type: cell-based; conditions: inhibition of PGD2 (15 nM final) stimulated cAMP, LS174T cells expressing endogenous DP receptor
T1 construct: the human cell line LS174T, which expresses the endogenous DP receptor; endogenous in cells; host or cells: LS174T human cell line
T1 sequence (Q13258 1-359): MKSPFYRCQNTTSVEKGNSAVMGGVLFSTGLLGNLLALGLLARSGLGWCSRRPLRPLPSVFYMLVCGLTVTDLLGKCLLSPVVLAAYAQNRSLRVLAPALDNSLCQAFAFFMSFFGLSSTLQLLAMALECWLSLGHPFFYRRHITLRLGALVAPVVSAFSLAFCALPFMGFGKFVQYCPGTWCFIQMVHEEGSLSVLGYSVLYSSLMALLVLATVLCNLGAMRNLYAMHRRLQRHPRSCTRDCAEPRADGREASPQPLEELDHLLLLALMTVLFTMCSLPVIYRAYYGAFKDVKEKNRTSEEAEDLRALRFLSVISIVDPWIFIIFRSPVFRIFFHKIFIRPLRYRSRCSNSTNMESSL
Description: The inhibitory effects of the compounds according to the invention are assessed in a human DP functional assay. A cAMP assay is employed using the human cell line LS174T, which expresses the endogenous DP receptor.
Protocol for SPA cAMP Assay in Human LS174 T Cells
• 1) Add equal volumes of tracer, antiserum and SPA anti-rabbit reagent to a bottle, ensuring that a sufficient volume of this mixture is prepared for the desired number of wells (150 μL/well). • 2) Mix thoroughly. • 3) This immunoreagent solution should be freshly prepared before each assay and not re-used.
Add 50 μL of […] IBMX into 100 mL PBS to make a final concentration of 100 μM and sonicate at 30° C. for 20 minutes.
Before each assay, it is freshly prepared. Add 3 μL of 10 mM stock solution to 20 mL DMSO, mix it thoroughly, and transfer 10 mL to 40 mL PBS.
Compound dilution is carried out in Biomex 2000 (Beckman) using Method 1_cAMP DP 11 points.
5 μL of each compound from the 10 mM stock compound plates is transferred to the wells of a 96-well plate respectively as below.
Fill the plate with 45 μL of DMSO except column 7 is filled with 28 μL DMSO. Pipette column 1 thoroughly, and transfer 12 μL into column 7 parallel. Perform 1:10 serial dilution from column 1 to column 6 and from column 7 to column 11 by transfer 5 μL to 45 μL DMSO to make following concentrations:
Fill a new 96-well plate with 247.5 μL of compound dilution buffer. Transfer 2.5 μL of serially diluted compounds from above plate to the new plate (1:100 dilution) as following:
Cell Growth • 1. […] Remove growth medium from cells. Cells in T165 flask are washed twice with 4 mL Trypsin followed by incubation at 37° C. and 5% CO2 for 3 minutes. • 4. Add 10 mL of medium and pipette thoroughly to separate the cells and count the cells. • 5. […] Assay Procedure Day 1 • Seed 45,000 cells/well in 200 μL medium in 96-well plates. Incubate the cell plate at 37° C., 5% CO2 and 95% humidity overnight. Day 2 • 1. Perform compound dilution. • 2. Prepare assay buffer, lysis buffer 1 & 2, PGD2 and standard. • 3. Aspirate media from the cells and add 100 μL of compound solution using Zymark Sciclone-ALH/FD protocol cAMP DP. • 4. Incubate the cells at 37° C., 5% CO2 and 95% humidity for 15 minutes. • 5. […] Aspirate media from the cells and add 50 μL of lysis buffer 1 using Zymark protocol cAMP DP lysis, and incubate at room temperature with shaking for 30 minutes. • 7. Add 150 μL immunoreagent to all wells (a total volume of 200 μL/well). • 8. Seal the plates and shake for 2 minutes, put into the chamber of the Wallac microtitre plate μ scintillation counter for 16 hours. […] Data Processing Set up standard curve of cAMP versus CPM.
The cAMP concentrations (pmol/mL) of unknown samples are calculated from a standard curve of cAMP versus CPM. % inhibition is calculated using the following formula: […]

Structure (SMILES)	IC50
COc1nc(NC2CCc3ccccc32)cc(-c2cccc(C(C)(C)C(=O)O)c2)n1 (stereo not drawn) [Example 83(a), 2-{3-[6-(Indan-1-ylamino)-2-methoxy-pyrimidin-4-yl]-phenyl}-2-methyl-propionic acid]	83 nM
COc1nc(NCCc2ccc(Cl)cc2Cl)cc(-c2ccc3nc(NC(C)=O)sc3c2)n1 [Example 94, N-(6-{6-[2-(2,4-Dichloro-phenyl)-ethylamino]-2-methoxy-pyrimidin-4-yl}-benzothiazol-2-yl)-acetamide]	11 nM
COc1ccc(C[C@H](Nc2cc(-c3cccc(OC)c3)nc(OC)n2)C(=O)O)cc1 [Example 43(n), (2S)-2-[2-Methoxy-6-(3-methoxy-phenyl)-pyrimidin-4-ylamino]-3-(4-methoxy-phenyl)-propionic acid]	548 nM
COc1cccc(-c2cc(NCCc3cccnc3)nc(OC)n2)c1 [Example 43(i), [2-Methoxy-6-(3-methoxy-phenyl)-pyrimidin-4-yl]-(2-pyridin-3-yl-ethyl)-amine hydrochloride]	248 nM
COc1ccc(C(C)(C)CNc2cc(-c3cccc(OC)c3)nc(OC)n2)cc1 [Example 29, [2-Methoxy-6-(3-methoxy-phenyl)-pyrimidin-4-yl]-[2-(4-methoxy-phenyl)-2-methyl-propyl]-amine]	792 nM
COC(=O)Cn1cc(-c2cc(NCCc3c(F)cccc3Cl)nc(OC)n2)ccc1=O [Example 22(d), (5-{6-[2-(2-Chloro-6-fluoro-phenyl)-ethylamino]-2-methoxy-pyrimidin-4-yl}-2-oxo-2H-pyridin-1-yl)-acetic acid methyl ester]	14 nM
COc1nc(NCC2CN(C)c3ccccc3O2)cc(-c2cccc(C(C)(C)C(=O)O)c2)n1 (stereo not drawn) [Example 92, 2-(3-{2-Methoxy-6-[(4-methyl-3,4-dihydro-2H-benzo[1,4]oxazin-2-ylmethyl)-amino]-pyrimidin-4-yl}-phenyl)-2-methyl-propionic acid]	278 nM
COc1nc(NCC(F)(F)c2ccccc2)cc(-c2cccc(C(C)(C)C(=O)O)c2)n1 [Example 67, 2-{3-[6-(2,2-Difluoro-2-phenyl-ethylamino)-2-methoxy-pyrimidin-4-yl]-phenyl}-2-methyl-propionic acid]	38 nM
COc1nc(NCCc2ccc(OC(F)(F)F)cc2)cc(-c2cccc(N)c2)n1 [Example 5, [6-(3-amino-phenyl)-2-methoxy-pyrimidin-4-yl]-[2-(4-trifluoromethoxy-phenyl)-ethyl]-amine]	9.6 nM
COCC(=O)NCc1cc(-c2cc(NCCc3ccc(OC)cc3)nc(OC)n2)ccc1F [Example 28, N-(2-Fluoro-5-{2-methoxy-6-[2-(4-methoxy-phenyl)-ethylamino]-pyrimidin-4-yl}-benzyl)-2-methoxy-acetamide hydrochloride]	9 nM
COc1ccc(CCNc2cc(-c3ccc(C(=O)O)s3)nc(OC)n2)cc1 [Example 8(a), 5-{2-Methoxy-6-[2-(4-methoxy-phenyl)-ethylamino]-pyrimidin-4-yl}-thiophene-2-carboxylic acid trifluoroacetate]	0.33 nM
COc1ccc(CCNc2cc(-c3ccc(OC)c(OC)c3)nc(OC(C)C)n2)cc1OC [Example 17(a), [2-(3,4-Dimethoxy-phenyl)-ethyl]-[6-(3,4-dimethoxy-phenyl)-2-isopropoxy-pyrimidin-4-yl]-amine]	6730 nM
COCC(=O)NCCc1cccc(-c2cc(NCCc3ccc(C(F)(F)F)cc3F)nc(OC)n2)c1 [Example 64, N-[2-(3-{6-[2-(2-Fluoro-4-trifluoromethyl-phenyl)-ethylamino]-2-methoxy-pyrimidin-4-yl}-phenyl)-ethyl]-2-methoxy-acetamide]	56 nM

Second part, the compound after the results:

IC50	Structure (SMILES)
0.7 nM	COc1nc(NCCc2ccc(OC(F)(F)F)cc2)cc(-c2cccc(C3(C(=O)NS(C)(=O)=O)CCOCC3)c2)n1 [Example 84(a), N-[4-(3-{2-Methoxy-6-[2-(4-trifluoromethoxy-phenyl)-ethylamino]-pyrimidin-4-yl}-phenyl)-tetrahydro-pyran-4-carbonyl]-methanesulfonamide]
0.3 nM	COc1nc(NCCc2ccc(Cl)cc2Cl)cc(-c2cccc(C(=O)O)c2)n1 [Example 35(w), 3-{6-[2-(2,4-dichloro-phenyl)-ethylamino]-2-methoxy-pyrimidin-4-yl}-benzoic acid]
0.16 nM	COc1nc(NCCc2ccc(Cl)cc2Cl)cc(-c2ccc(C(=O)O)s2)n1 [Example 87, 5-{6-[2-(2,4-Dichloro-phenyl)-ethylamino]-2-methoxy-pyrimidin-4-yl}-thiophene-2-carboxylic acid]
0.4 nM	COc1nc(NCCc2ccc(Cl)cc2Cl)cc(-c2cccc(C(C)(C)c3nnn[nH]3)c2)n1 [Example 47, hydrochloride]
0.02 nM	COc1nc(NCCc2ccc(Cl)cc2Cl)cc(-c2cccc(C(F)(F)C(=O)O)c2)n1 [Example 81(a), (3-{6-[2-(2,4-Dichloro-phenyl)-ethylamino]-2-methoxy-pyrimidin-4-yl}-phenyl)-difluoro-acetic acid]
0.8 nM	COc1nc(NCCc2ccc(Cl)cc2Cl)cc(-c2cccc(C(=O)NCC(=O)O)c2)n1 [Example 59, (3-{6-[2-(2,4-Dichloro-phenyl)-ethylamino]-2-methoxy-pyrimidin-4-yl}-benzoylamino)-acetic acid]
6 nM	COc1ccc(CCNc2cc(-c3cccc(CC#N)c3)nc(OC)n2)cc1 [Example 35(s), (3-{2-Methoxy-6-[2-(4-methoxy-phenyl)-ethylamino]-pyrimidin-4-yl}-phenyl)-acetonitrile]
0.6 nM	COC(=O)COc1cccc(-c2cc(NCCc3ccc(Cl)cc3Cl)nc(OC)n2)c1 [Example 22(c), (3-{6-[2-(2,4-Dichloro-phenyl)-ethylamino]-2-methoxy-pyrimidin-4-yl}-phenoxy)-acetic acid methyl ester]
0.6 nM	COc1ccc(CCNc2cc(-c3ccc(C=O)s3)nc(OC)n2)cc1 [Example 8(b), 5-{2-methoxy-6-[2-(4-methoxy-phenyl)-ethylamino]-pyrimidin-4-yl}-thiophene-2-carbaldehyde]
0.1 nM	COc1ccc(CCNc2cc(-c3cccc(O)c3)nc(OC)n2)cc1 [Example 15(a), 3-{2-Methoxy-6-[2-(4-methoxy-phenyl)-ethylamino]-pyrimidin-4-yl}-phenol hydrochloride]
7.3 nM	COc1ccc(CCNc2cc(-c3cccc(S(C)(=O)=O)c3)nc(OC)n2)cc1 [Example 10(i)]
4.8 nM	COc1nc(NCCc2ccc(OC(F)(F)F)cc2)cc(-c2cccc(NC(C)=O)c2)n1 [Example 6(a), N-(3-{2-Methoxy-6-[2-(4-trifluoromethoxy-phenyl)-ethylamino]-pyrimidin-4-yl}phenyl)-acetamide]
7.6 nM	CCNC(=O)Nc1cccc(-c2cc(NCCc3ccc(OC)cc3)nc(OC)n2)c1 [Example 41, 1-Ethyl-3-(3-{2-methoxy-6-[2-(4-methoxy-phenyl)-ethylamino]-pyrimidin-4-yl}-phenyl)-urea]
0.3 nM	COc1nc(NCCc2c(F)cccc2Cl)cc(-c2ccc(=O)n(CC(=O)O)c2)n1 [Example 23(c), (5-{6-[2-(2-Chloro-6-fluoro-phenyl)-ethylamino]-2-methoxy-pyrimidin-4-yl}-2-oxo-2H-pyridin-1-yl)-acetic acid]
